The record followed here is US6284785A, “1-arenesulfonyl-2-aryl-pyrrolidine and pyridine derivatives” (Hoffmann- La Roche Inc., priority 1999, dated 2001).

The target in the assay is T1, rat mGlu 1a receptor (Rattus norvegicus, UniProt P23385).
T1 construct: expressed in transfected cells; host or cells: EBNA cells (transient transfection)
The assay is described as follows: [Ca2+]i measurements (FLIPR, Fluo-3 AM) on mGlu 1a transfected EBNA cells; agonist or antagonist (against 10 μM glutamate). As to conditions: for Remarks (agonist / antagonist): table of substituents of the Examples, column Remarks. In kind it is cell-based. How it is done:
cDNA encoding rat mGlu 1a receptor obtained from Prof. Nakanishi (Kyoto, Japan) was transiently tranfected into EBNA cells using a procedure described by Schlaeger et. al, New Dev. New Appl. Anim Cell Techn., Proc. ESACT Meet., 15th (1998), 105-112 and 117-120. [Ca^2+ ]i measurements were performed on mGlu 1a transfected EBNA cells after incubation of the cells with Fluo-3 AM (0.5 μM final concentration) for 1hour at 37° C. followed by 4 washes with assay buffer (DMEM supplemented with Hank's salt and 20 mM HEPES. [Ca^2+ ]i measurements were done using a fluorometric imaging plate reader (FLIPR, Molecular Devices Corporation, La Jolla, Calif. USA). When compounds were evaluated as antagonists they were tested against 10 μM glutamate as agonist.
The inhibition (antagonists) or activation (agonists) curves were fitted with a four parameter logistic equation giving EC50, IC50, and Hill coefficient using the iterative non linear curve fitting software Origin (Microcal Software Inc., Northampton, Mass., USA).

The structures appear in SMILES notation.

T1 sequence (P23385 19-1199): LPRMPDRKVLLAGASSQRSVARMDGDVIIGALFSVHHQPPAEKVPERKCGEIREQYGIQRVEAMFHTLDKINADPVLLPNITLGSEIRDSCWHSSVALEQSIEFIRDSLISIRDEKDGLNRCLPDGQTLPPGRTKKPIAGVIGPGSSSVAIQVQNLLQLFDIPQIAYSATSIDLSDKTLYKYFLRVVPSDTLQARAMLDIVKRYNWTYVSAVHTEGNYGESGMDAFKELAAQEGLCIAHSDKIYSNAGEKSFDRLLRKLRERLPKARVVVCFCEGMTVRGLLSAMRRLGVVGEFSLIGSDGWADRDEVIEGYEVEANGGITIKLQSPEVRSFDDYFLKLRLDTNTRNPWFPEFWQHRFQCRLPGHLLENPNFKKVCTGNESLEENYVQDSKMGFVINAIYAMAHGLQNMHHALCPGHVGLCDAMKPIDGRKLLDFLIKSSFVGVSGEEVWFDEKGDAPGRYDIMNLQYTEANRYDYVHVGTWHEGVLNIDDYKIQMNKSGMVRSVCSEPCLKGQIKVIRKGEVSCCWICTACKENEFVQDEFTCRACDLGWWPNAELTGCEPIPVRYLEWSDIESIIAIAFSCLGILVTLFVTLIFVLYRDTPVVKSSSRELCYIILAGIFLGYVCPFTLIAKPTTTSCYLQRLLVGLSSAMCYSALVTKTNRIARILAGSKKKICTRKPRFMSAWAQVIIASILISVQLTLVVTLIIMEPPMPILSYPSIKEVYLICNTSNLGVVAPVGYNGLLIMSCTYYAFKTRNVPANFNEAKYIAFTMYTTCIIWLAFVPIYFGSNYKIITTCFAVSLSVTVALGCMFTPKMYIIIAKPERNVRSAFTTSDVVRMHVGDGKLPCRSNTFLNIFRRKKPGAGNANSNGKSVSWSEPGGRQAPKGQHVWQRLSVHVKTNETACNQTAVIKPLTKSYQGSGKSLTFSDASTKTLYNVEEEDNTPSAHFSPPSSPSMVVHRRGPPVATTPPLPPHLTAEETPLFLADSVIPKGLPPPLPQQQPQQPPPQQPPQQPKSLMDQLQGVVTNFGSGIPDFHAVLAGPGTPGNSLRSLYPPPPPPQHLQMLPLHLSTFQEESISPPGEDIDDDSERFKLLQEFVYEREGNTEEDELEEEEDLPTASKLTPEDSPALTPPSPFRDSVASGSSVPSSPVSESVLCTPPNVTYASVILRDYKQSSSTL

For the compound `Cc1ccc(S(=O)(=O)N2CCCC2c2ccsc2)cc1` (racemic) [Example 55, (RS)-2-Thien-3-yl-1-(toluene-4-sulfonyl)-pyrrolidine], the “agonistic / antagonistic activity to the mGlu receptor” value (“agonistic / antagonistic activity” below) is on record as “agonistic activty” and the “Remarks (agonist / antagonist)” value is reported as “Agonist”.

In the case of `Cc1ccc(S(=O)(=O)N2CCCC2c2ccc(Cl)c(Cl)c2)cc1` (racemic) [Example 47, (RS)-2-(3,4-Dichloro-phenyl)-1-(toluene-4-sufonyl)-pyrrolidine], the “Remarks (agonist / antagonist)” value is listed as “Antagonist”.

For the compound `Cc1ccc(S(=O)(=O)N2CCCC2c2ccccc2Cl)cc1` (racemic) [Example 51, (RS)-2-(2-Chloro-phenyl)-1-(toluene-4-sulfonyl)-pyrrolidine], the “Remarks (agonist / antagonist)” value is on record as “Antagonist”.

As to `Cc1ccc(S(=O)(=O)N2CCCC2c2ccc(C(F)(F)F)cc2)cc1` (racemic) [Example 48, (RS)-1-(Toluene-4-sulfonyl)-2-(4-trifluoromethyl-phenyl)-pyrrolidine], the “agonistic / antagonistic activity” value was “agonistic activty” and the “Remarks (agonist / antagonist)” value was “Agonist”.

For the compound `O=S(=O)(c1ccc(Cl)cc1)N1CCC[C@H]1c1ccc(F)cc1` [Example 77, (S)-1-(4-Chloro-benzenesulfonyl)-2-(4-fluoro-phenyl)-pyrrolidine], the “agonistic / antagonistic activity” value is “agonistic activty” and the “Remarks (agonist / antagonist)” value is on record as “Agonist”.

On to `O=S(=O)(c1ccc(F)cc1)N1CCCC1c1ccc(C(F)(F)F)cc1` (racemic) [Example 50, (RS)-1-(4-Floro-benzenesulfonyl)-2-(4-trifluoromethyl-phenyl)-pyrrolidine], for which the “Remarks (agonist / antagonist)” value is “Antagonist”.

`Cc1cccc(C2CCCN2S(=O)(=O)c2ccc(Cl)cc2)c1` (racemic) [Example 29, (RS)-1-(4-Chloro-benzenesulfonyl)-2-m-tolyl-pyrrolidine]: the “agonistic / antagonistic activity” value is “agonistic activty” and the “Remarks (agonist / antagonist)” value was “Agonist”.

`O=S(=O)(c1ccccc1F)N1CCCC1c1ccc(F)cc1` (racemic) [Example 63, (RS)-1-(2-Fluoro-benzenesulfonyl)-2-(4-fluoro-phenyl)-pyrrolidine]: the “Remarks (agonist / antagonist)” value was “Antagonist”.

For `Cc1ccc(S(=O)(=O)N2CCCC2c2ccncc2)cc1` (racemic) [Example 3, (RS)-4-[1-(Toluene-4-sulfonyl)-pyrrolidin-2-yl]-pyridine], the “Remarks (agonist / antagonist)” value is on record as “Agonist”. Under “activity-data table”, the agonist/antagonist entry is given as “agonist”. Further, the EC50 (agonist, activation of mGlu 1a in EBNA cells, read-out: IC50 (compounds marked agonist)) was 8.22 µM.

Regarding `O=S(=O)(c1ccc(Cl)cc1)N1CCCC1c1ccc(F)c(Cl)c1` (racemic) [Example 43, (RS)-1-(4-Chloro-benzenesulfonyl)-2-(3-chloro-4-fluoro-phenyl)-pyrrolidine], the “Remarks (agonist / antagonist)” value is listed as “Antagonist”.

On to `N#Cc1ccccc1S(=O)(=O)N1CCCC1c1ccc(F)cc1` (racemic) [Example 65, (RS)-1-(2-Cyano-benzenesulfonyl)-2-(4-fluoro-phenyl)-pyrrolidine], for which the “Remarks (agonist / antagonist)” value is recorded as “Antagonist”.

As for `O=S(=O)(c1ccc(Cl)cc1)N1CCCC1c1cccc(Cl)c1` (racemic) [Example 32, (RS)-1-(4-Chloro-benzenesulfonyl)-2-(3-chloro-phenyl)-pyrrolidine], the “Remarks (agonist / antagonist)” value was “Antagonist”.

Regarding `Cc1ccc(S(=O)(=O)N2CCCC2c2ccc(F)cc2)cc1` (racemic) [Example 12, (RS)-2-(4-Fluoro-phenyl)-1-(toluene-4-sulfonyl)-pyrrolidine], the “Remarks (agonist / antagonist)” value was “Agonist”.

Consider `Cc1ccc(S(=O)(=O)N2CCCC2c2ccc(Cl)cc2)cc1` (racemic) [Example 8, (RS)-2-(4-Chloro-phenyl)-1-(toluene-4-sulfonyl)-pyrrolidine], for which the “agonistic / antagonistic activity” value is “agonistic activty” and the “Remarks (agonist / antagonist)” value is reported as “Agonist”.

On to `O=S(=O)(c1ccc(Br)cc1)N1CCCC1c1ccc(F)cc1` (racemic) [Example 26, (RS)-1-(4-Bromo-benzenesulfonyl)-2-(4-fluoro-phenyl)-pyrrolidine], for which the “agonistic / antagonistic activity” value is on record as “agonistic activty” and the “Remarks (agonist / antagonist)” value is “Agonist”.

For the compound `CC(C)c1ccc(S(=O)(=O)N2CCCC2c2ccc(F)cc2)cc1` (racemic) [Example 22, (RS)-2-(4-Fluoro-phenyl)-1-(4-isopropyl-benzenesulfonyl)-pyrrolidine], the “Remarks (agonist / antagonist)” value is given as “Antagonist”.
